Reference: EP4389751A1, “HETEROCYCLIC COMPOUNDS AND USES THEREOF” (Kumquat Biosciences Inc., priority 2021, dated 2024)

How the values were obtained:
[1] = molecular target: T1, KRAS protein (His-tagged GDP-loaded G12S 1-169) (Homo sapiens, UniProt P01116, G12S); assay: Covalent modification of KRAS protein, intact-protein LC-MS; assay type: binding; settings: 24hrs at room temperature, KRAS protein ~2 µM
T1 construct: His-tagged GDP-loaded G12S 1-169
Protocol: Test compounds are prepared as 10 mM stock solutions in DMSO (Fisher cat#BP231-100). KRAS protein (His-tagged GDP-loaded wildtype 1-169, His-tagged GDP-loaded G12S 1-169 or His-tagged GDP-loaded G12D 1-169) is diluted to ~2 µM in appropriate buffer (e.g., a Hepes buffer at physiological conditions). For testing KRAS modification, compounds are diluted to 50X final test concentration in DMSO in 96-well storage plates. 2 µl of the diluted 50X compounds are added to appropriate wells in the PCR plate (Fisher cat#AB-0800). […] of the stock protein solution is added to each well of the 96-well PCR plate. Reactions are mixed carefully. The plate is sealed well with aluminum plate seal, and stored in drawer at room temperature for 24hrs. 5 µl of 2% formic acid (Fisher cat#A1 17-50) in MilliQ H2O is then added to each well followed by mixing with a pipette. The plate is then resealed with aluminum seal and stored until mass spectrometry analysis.
The extent of covalent modification of KRAS proteins was determined by liquid chromatography electrospray mass spectrometry analysis of the intact proteins on a Thermo Q-Exactive Plus mass spectrometer. 20 µl of sample was injected onto a bioZen 3.6 µm Intact C4 column (Phenomenex cat#00B-4767-AN) placed in a column oven set to 40°C and separated using a suitable LC gradient from -20% to ~60% solvent B. Solvent A was 0.1% formic acid and solvent B was 0.1% formic acid in acetonitrile. HESI source settings were set to 40, 5 and 1 for the sheath, auxiliary and sweep gas flow, respectively. The spray voltage was 4 kV, and the capillary temperature was 320°C. S-lens RF level was 50 and auxiliary gas heater temperature was set to 200°C. The mass spectrometry was acquired using a scan range from 650 to 1750 m/z using positive polarity at a mass resolution of 70,000, AGC target of 1e6 ions and maximum injection time of 250ms. The recorded protein mass spectrum was deconvoluted from the raw data file using Protein Deconvolution v4.0 (Thermo). The protein mass and adduct masses were exported with their peak intensities. The peak intensities for the unmodified and modified protein were used to calculate the percent covalent modification of the KRAS protein based on the following equation: %KRAS protein modification = ((KRAS-compound) / (KRAS) + (KRAS-Compound)) *100.

K-Ras G12S = molecular target: T2, K-Ras G12S (Homo sapiens, UniProt P01116, G12S); assay: HTRF assay of the K-Ras / SOS1 interaction; assay type: biochemical; settings: IC50 (against K-Ras G12D) to IC50 (against K-Ras G12S)
T2 construct: made in house; host or cells: E. coli (e.g., BL21 (DE3))
How it was run: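 GST-K-Ras G12S with anti-GST-Eu donor and His-hSOS1 with anti-6His-XL665 acceptor in ~5 mM HEPES pH 7.4, ~150 mM NaCl, 1 mM DTT, 0.05% BSA, 0.0025% Igepal. Read after ~10 min or longer; IC50 from 665/620 nm ratio, duplicates at 10 µM down to 0.01 µM.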

| Structure (SMILES) | % G12S Modification at 24 hr. [1] | Ratio of IC50 KRAS G12D vs. IC50 KRAS G12S (K-Ras G12S) |
| --- | --- | --- |
| Nc1nc2c(-c3c(Cl)cc4c(N5CCC6(CC5)CN(C(=O)n5cncn5)CCO6)nc(OC[C@@]56CCCN5C[C@H](F)C6)nc4c3F)ccc(F)c2s1 [Compound A225, (9-(7-(2-amino-7-fluorobenzo[d]thiazol-4-yl)-6-chloro-8-fluoro-2-(((2R,7aS)-2-fluorotetrahydro-1H-pyrrolizin-7a(5H)-yl)methoxy)quinazolin-4-yl)-1-oxa-4,9-diazaspiro [5.5]undecan-4-yl)(1H-1,2,4-triazol-1-yl)methanone] | ++ (++ indicates between about 1%- 20% labelling) | A (A: indicates that the ratio of IC50 against KrasG12D vs. IC50 against KrasG12S is 1-fold or greater) |
| N#Cc1cccn1C(=O)N1CCN(c2nc(OC[C@@]34CCCN3C[C@H](F)C4)nc3c(F)c(-c4ccc(F)c5sc(N)nc45)c(Cl)cc23)CC(F)(F)C1 [Compound A114, 1-(4-(7-(2-amino-7-fluorobenzo[d]thiazol-4-yl)-6-chloro-8-fluoro-2-(((2R,7aS)-2-fluorotetrahydro-1H-pyrrolizin-7a(5H)-yl)methoxy)quinazolin-4-yl)-6,6-difluoro-1,4-diazepane-1-carbonyl)-1H-pyrrole-2-carbonitrile] | +++ (+++ indicates greater than 20% labelling) | A (A: indicates that the ratio of IC50 against KrasG12D vs. IC50 against KrasG12S is 1-fold or greater) |
| N#Cc1cnn(C(=O)N2CCCN(c3nc(OC[C@@]45CCCN4C[C@H](F)C5)nc4c(F)c(-c5ccc(F)c6sc(N)nc56)c(Cl)cc34)CC2)c1 [Compound A231, 1-(4-(7-(2-amino-7-fluorobenzo[d]thiazol-4-yl)-6-chloro-8-fluoro-2-(((2R,7aS)-2-fluorotetrahydro-1H-pyrrolizin-7a(5H)-yl)methoxy)quinazolin-4-yl)-1,4-diazepane-1-carbonyl)-1H-pyrazole-4-carbonitrile] | ++ (++ indicates between about 1%- 20% labelling) | A (A: indicates that the ratio of IC50 against KrasG12D vs. IC50 against KrasG12S is 1-fold or greater) |
| N#Cc1c(N)sc2c(F)ccc(-c3c(Cl)cc4c(O[C@@H]5CCN(C(=O)n6cncn6)C5)nc(OCC56CCCN5C[C@H](F)C6)nc4c3F)c12 (stereo partly drawn) [Compound A213, 4-(4-(((R)-1-(1H-1,2,4-triazole-1-carbonyl)pyrrolidin-3-yl)oxy)-6-chloro-8-fluoro-2-(((2R)-2-fluorotetrahydro-1H-pyrrolizin-7a(5H)-yl)methoxy)quinazolin-7-yl)-2-amino-7-fluorobenzo[b]thiophene-3-carbonitrile] | ++ (++ indicates between about 1%- 20% labelling) | A (A: indicates that the ratio of IC50 against KrasG12D vs. IC50 against KrasG12S is 1-fold or greater) |
| N#Cc1c(N)sc2c(F)ccc(-c3c(Cl)cc4c(OC5CCCCN(C(=O)n6cncn6)C5)nc(OC[C@@]56CCCN5C[C@H](F)C6)nc4c3F)c12 (stereo partly drawn) [Compound A169, 4-(4-((1-(1H-1,2,4-triazole-1-carbonyl)azepan-3-yl)oxy)-6-chloro-8-fluoro-2-(((2R,7aS)-2-fluorotetrahydro-1H-pyrrolizin-7a(5H)-yl)methoxy)quinazolin-7-yl)-2-amino-7-fluorobenzo[b]thiophene-3-carbonitrile] | +++ (+++ indicates greater than 20% labelling) | A (A: indicates that the ratio of IC50 against KrasG12D vs. IC50 against KrasG12S is 1-fold or greater) |
| CN1CCC[C@H]1COc1nc(N2CCOC3(CN(C(=O)n4cncn4)C3)C2)c2cc(Cl)c(-c3ccc(F)c4sc(N)c(C#N)c34)c(F)c2n1 [Compound A182, 4-(4-(2-(1H-1,2,4-triazole-1-carbonyl)-5-oxa-2,8-diazaspiro[3.5]nonan-8-yl)-6-chloro-8-fluoro-2-(((S)-1-methylpyrrolidin-2-yl)methoxy)quinazolin-7-yl)-2-amino-7-fluorobenzo[b]thiophene-3-carbonitrile] | ++ (++ indicates between about 1%- 20% labelling) | A (A: indicates that the ratio of IC50 against KrasG12D vs. IC50 against KrasG12S is 1-fold or greater) |
| N#Cc1nccn1C(=O)N1CC2CN(c3nc(OC[C@@]45CCCN4C[C@H](F)C5)nc4c(F)c(-c5ccc(F)c6sc(N)nc56)c(Cl)cc34)CC2C1 (stereo partly drawn) [Compound A236, 1-(5-(7-(2-amino-7-fluorobenzo[d]thiazol-4-yl)-6-chloro-8-fluoro-2-(((2R,7aS)-2-fluorotetrahydro-1H-pyrrolizin-7a(5H)-yl)methoxy)quinazolin-4-yl)octahydropyrrolo[3,4-c]pyrrole-2-carbonyl)-1H-imidazole-2-carbonitrile] | ++ (++ indicates between about 1%- 20% labelling) | A (A: indicates that the ratio of IC50 against KrasG12D vs. IC50 against KrasG12S is 1-fold or greater) |
| N#Cc1c(N)sc2c(F)ccc(-c3c(Cl)cc4c(N5CC(F)(F)C6CN(C(=O)n7cncn7)CCC65)nc(OC[C@@]56CCCN5C[C@H](F)C6)nc4c3F)c12 (stereo partly drawn) [Compound A263, 2-amino-4-(6-chloro-4-(3,3-difluoro-5-(1H-1,2,4-triazole-1-carbonyl)octahydro-1H-pyrrolo[3,2-c]pyridin-1-yl)-8-fluoro-2-(((2R,7aS)-2-fluorotetrahydro-1H-pyrrolizin-7a(5H)-yl)methoxy)quinazolm-7-yl)-7-fluorobenzo[b]thiophene-3-carbonitrile] | ++ (++ indicates between about 1%- 20% labelling) | A (A: indicates that the ratio of IC50 against KrasG12D vs. IC50 against KrasG12S is 1-fold or greater) |
| N#Cc1c(N)sc2c(F)ccc(-c3c(Cl)cc4c(N5CC6CCCN(C(=O)n7cncn7)C6C5)nc(OC[C@@]56CCCN5C[C@H](F)C6)nc4c3F)c12 (stereo partly drawn) [Compound A284, 4-(4-(1-(1H-1,2,4-triazole-1-carbonyl)octahydro-6H-pyrrolo[3,4-b]pyridin-6-yl)-6-chloro-8-fluoro-2-(((2R,7aS)-2-fluorotetrahydro-1H-pyrrolizin-7a(5H)-yl)methoxy)quinazolin-7-yl)-2-amino-7-fluorobenzo[b]thiophene-3-carbonitrile] | +++ (+++ indicates greater than 20% labelling) | A (A: indicates that the ratio of IC50 against KrasG12D vs. IC50 against KrasG12S is 1-fold or greater) |
| Cc1ncn(C(=O)N2CCCC(Oc3nc(OC[C@@]45CCCN4C[C@H](F)C5)nc4c(F)c(-c5ccc(F)c6sc(N)c(C#N)c56)c(Cl)cc34)C2)n1 (stereo partly drawn) [Compound A302, 2-amino-4-(6-chloro-8-fluoro-2-(((2R,7aS)-2-fluorotetrahydro-1H-pyrrolizin-7a(5H)-yl)methoxy)-4-((1-(3-methyl-1H-1,2,4-triazole-1-carbonyl)piperidin-3-yl)oxy)quinazolin-7-yl)-7-fluorobenzo[b]thiophene-3-carbonitrile] | ++ (++ indicates between about 1%- 20% labelling) | A (A: indicates that the ratio of IC50 against KrasG12D vs. IC50 against KrasG12S is 1-fold or greater) |
| Nc1nc2c(-c3c(Cl)cc4c(N5CCCC6(CN(C(=O)n7cncn7)CCO6)C5)nc(OC[C@@]56CCCN5C[C@H](F)C6)nc4c3F)ccc(F)c2s1 (stereo partly drawn) [Compound A125, (8-(7-(2-amino-7-fluorobenzo[d]thiazol-4-yl)-6-chloro-8-fluoro-2-(((2R,7aS)-2-fluorotetrahydro-1H-pyrrolizin-7a(5H)-yl)methoxy)quinazolin-4-yl)-1-oxa-4,8-diazaspiro [5.5]undecan-4-yl)(1H-1,2,4-triazol-1-yl)methanone] | ++ (++ indicates between about 1%- 20% labelling) | A (A: indicates that the ratio of IC50 against KrasG12D vs. IC50 against KrasG12S is 1-fold or greater) |
